Source: PubChem BioAssay (NCI)
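Step 1: Grow cells in 96-well plates. Step 2: Expose to compound for 48 hours at 5 concentrations. Step 3: Interpolate endpoints linearly; if unreached, use highest concentration. The concentration for 50% growth inhibition is given as GI50. The concentration for full growth arrest is given as TGI.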

What was measured:
Assay in all cases: growth of human tumour cells (NCI), 48 h
[1] = system: SF-295 CNS
[2] = system: SK-MEL-5 melanoma
[3] = system: TK-10 renal
[4] = system: HCC-2998 colon
[5] = system: UO-31 renal
[6] = system: HCT-15 colon
[7] = system: DU-145 prostate
[8] = system: OVCAR-3 ovarian
[9] = system: SF-539 CNS
[10] = system: KM12 colon
[11] = system: SK-MEL-2 melanoma
[12] = system: U251 CNS
[13] = system: MOLT-4 leukemia
[14] = system: SNB-75 CNS
[15] = system: NCI-H460 lung
[16] = system: PC-3 prostate
[17] = system: SK-OV-3 ovarian
[18] = system: IGROV1 ovarian
[19] = system: LOX IMVI melanoma
[20] = system: MALME-3M melanoma
[21] = system: OVCAR-4 ovarian
[22] = system: MDA-MB-435
[23] = system: SW-620 colon
[24] = system: OVCAR-8 ovarian
[25] = system: UACC-257 melanoma
[26] = system: HOP-92 NSCLC
[27] = system: A549 NSCLC
[28] = system: K-562 leukemia
[29] = system: OVCAR-5 ovarian
[30] = system: M14 melanoma
[31] = system: EKVX NSCLC
[32] = system: ACHN renal
[33] = system: CAKI-1 renal
[34] = system: SK-MEL-28 melanoma
[35] = system: UACC-62 melanoma
[36] = system: HCT-116 colon
[37] = system: HL-60(TB) leukemia
[38] = system: HOP-62 NSCLC
[39] = system: MCF7 breast
[40] = system: CCRF-CEM leukemia
[41] = system: NCI-H522 lung
[42] = system: SNB-19 CNS
[43] = system: SN12C renal
[44] = system: NCI-H23 lung
[45] = system: BT-549 breast
[46] = system: A498 renal

## Cc1ccc(C2CC(c3cccc(Nc4ccncc4)c3)=NN2c2cc(Cl)cc(Cl)c2)cc1 (configuration not stated)
[1]
  GI50: 1720 nM
  TGI: 3100 nM
[2]
  GI50: 1760 nM
  TGI: 3170 nM
[3]
  GI50: 1640 nM
  TGI: 3070 nM
[4]
  GI50: 1520 nM
  TGI: 2850 nM
[5]
  GI50: 1310 nM
  TGI: 2590 nM
[6]
  GI50: 1670 nM
  TGI: 3100 nM
[7]
  GI50: 1900 nM
  TGI: 3520 nM
[8]
  GI50: 1720 nM
  TGI: 3230 nM
[9]
  GI50: 1650 nM
  TGI: 3050 nM
[10]
  GI50: 1650 nM
  TGI: 3040 nM
[11]
  GI50: 2000 nM
  TGI: 3990 nM
[12]
  GI50: 1860 nM
  TGI: 3880 nM
[13]
  GI50: 1940 nM
  TGI: 4440 nM
[14]
  GI50: 1230 nM
  TGI: 2620 nM
[15]
  GI50: 1830 nM
  TGI: 3550 nM
[16]
  GI50: 1580 nM
  TGI: 3200 nM
[17]
  GI50: 1680 nM
  TGI: 3380 nM
[18]
  GI50: 1690 nM
  TGI: 3230 nM
[19]
  GI50: 1550 nM
  TGI: 2890 nM
[20]
  GI50: 1670 nM
  TGI: 3250 nM
[21]
  GI50: 1580 nM
  TGI: 3100 nM
[22]
  GI50: 1660 nM
  TGI: 3110 nM
[23]
  GI50: 1690 nM
  TGI: 3260 nM
[24]
  GI50: 2210 nM
  TGI: 5240 nM
[25]
  GI50: 1880 nM
  TGI: 3830 nM
[26]
  GI50: 1370 nM
  TGI: 2780 nM
[27]
  GI50: 1780 nM
  TGI: 3600 nM
[28]
  GI50: 1850 nM
  TGI: 4580 nM
[29]
  GI50: 1650 nM
  TGI: 3060 nM
[30]
  GI50: 1930 nM
  TGI: 3990 nM
[31]
  GI50: 1550 nM
  TGI: 2940 nM
[32]
  GI50: 1650 nM
  TGI: 3000 nM
[33]
  GI50: 1540 nM
  TGI: 3030 nM
[34]
  GI50: 1770 nM
  TGI: 3300 nM
[35]
  GI50: 1770 nM
  TGI: 3250 nM
[36]
  GI50: 1850 nM
  TGI: 3850 nM
[37]
  GI50: 1830 nM
  TGI: 4110 nM
[38]
  GI50: 1910 nM
  TGI: 4530 nM
[39]
  GI50: 1890 nM
  TGI: 4100 nM
[40]
  GI50: 3470 nM
  TGI: > 100000 nM
[41]
  GI50: 1730 nM
  TGI: 3580 nM
[42]
  GI50: 1720 nM
  TGI: 3450 nM
[43]
  GI50: 1710 nM
  TGI: 3240 nM
[44]
  GI50: 1760 nM
  TGI: 3350 nM
[45]
  GI50: 1740 nM
  TGI: 3380 nM
[46]
  GI50: 1210 nM
  TGI: 2470 nM
